Results reported in PubChem BioAssay (NCI).
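Step 1: Grow cells in 96-well plates. Step 2: Expose to compound for 48 hours at 5 concentrations. Step 3: Interpolate endpoints linearly; if unreached, use highest concentration. GI50 = concentration required for 50% inhibition of growth. The concentration for full growth arrest is given as TGI.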

Assays:
Experiment in all cases: NCI-60 cell line screen, 48 h
[1] = tested on: EKVX NSCLC
[2] = tested on: HL-60(TB) leukemia
[3] = tested on: K-562 leukemia
[4] = tested on: SK-OV-3 ovarian
[5] = tested on: SNB-19 CNS
[6] = tested on: SNB-75 CNS
[7] = tested on: SW-620 colon
[8] = tested on: RXF 393 renal

SMILES	TGI [1]	TGI [2]	TGI [3]	TGI [4]	TGI [5]	TGI [6]	TGI [7]	TGI [8]	GI50 [1]	GI50 [2]	GI50 [3]	GI50 [8]	GI50 [4]	GI50 [5]	GI50 [6]	GI50 [7]
CCOc1ccc2c(c1)[n+]([O-])c(-c1ccc(Cl)cc1)c(N)[n+]2[O-]	> 100 µM	> 100 µM	> 100 µM	> 100 µM	> 100 µM	> 100 µM	> 100 µM									
CN1C(=Nc2ccccc2)SC1=Nc1ccccc1	> 100 µM	> 100 µM	> 100 µM	> 100 µM	> 100 µM	40.3 µM	> 100 µM									
CCOc1ccccc1N1C(=O)C(=O)C(c2nc3ccccc3o2)C(=O)C1=O	> 100 µM	> 100 µM	> 100 µM	> 100 µM	> 100 µM	> 100 µM	> 100 µM									
COc1ccc2n[se]nc2c1	> 100 µM	> 100 µM	> 100 µM	> 100 µM	> 100 µM	> 100 µM	> 100 µM	> 100 µM								
CN(C)CC/C(=N\Nc1ccc([N+](=O)[O-])cc1)c1ccccc1	29.9 µM	16.3 µM	15.9 µM	29.8 µM	28.9 µM	17.6 µM	26.5 µM	17.1 µM								
Cc1ccc2nc(NC(=O)C(=O)C(C#N)c3nc4ccccc4s3)sc2c1 (stereo unspecified)	> 100 µM		76.6 µM	> 100 µM	83.6 µM	> 100 µM	> 100 µM	90.9 µM								
CCC[CH2][Sn]1([CH2]CCC)[O]C(=O)c2cccnc2[O]1	8.04 µM	3.99 µM	6.01 µM	22.1 µM	10.6 µM	6.78 µM	3.6 µM	3.82 µM	2.54 µM	1.34 µM	1.85 µM	2.02 µM	10 µM	2.65 µM	2.09 µM	1.48 µM
COc1cc(/C=C2/C(=O)N(C(=O)OCC(C)C)C(Cc3cc(OC)c(OC)c(C)c3OC)C(=O)N2Cc2ccccc2)c(OC)c(C)c1OC (stereo unspecified)	> 100 µM	> 100 µM	> 100 µM	> 100 µM	> 100 µM	> 100 µM	> 100 µM	> 100 µM								
O=C([CH-]C(=O)c1ccccc1)c1ccccc1.O=C([CH-]C(=O)c1ccccc1)c1ccccc1.[La+3].[OH-].[OH3+]	51.9 µM	22.7 µM	> 100 µM	69.8 µM	66.3 µM	21.6 µM	> 100 µM	29.6 µM	14.3 µM	3.87 µM	5.24 µM	2.99 µM	21.3 µM	19.2 µM	5.02 µM	9.82 µM
COC(=O)/C(C)=C(/CCC1(C)OCCO1)O[Si](C)(C)C	> 100 µM	> 100 µM	> 100 µM	> 100 µM	> 100 µM	71.7 µM	> 100 µM	> 100 µM								
COc1ccc(Br)c(N/N=C2\CCCNC2=O)c1	78.6 µM	> 100 µM	> 100 µM	> 100 µM	> 100 µM	> 100 µM	> 100 µM									
Oc1c(C(Nc2cccc3cccnc23)c2ccccc2)ccc2cccnc12 (stereo unspecified)	> 100 µM	7.58 µM	> 100 µM		> 100 µM		> 100 µM									
CC(=O)CC(=O)OC1CC(C)CCC1C(C)C (stereo unspecified)	> 100 µM	40.2 µM	> 100 µM	> 100 µM	> 100 µM	> 100 µM	> 100 µM	> 100 µM								
CCc1cc(C(=O)OC)cn1C(=N)c1ccc(Cl)cc1	> 100 µM	> 100 µM	> 100 µM	> 100 µM	> 100 µM	> 100 µM	> 100 µM									
OC(c1ccccc1)(c1ccccc1)c1ccncc1	> 100 µM	> 100 µM	> 100 µM	> 100 µM	> 100 µM	> 100 µM	> 100 µM	> 100 µM								
CCS(CC)(CC)CC1CCCC2=CCC(P(=O)(c3ccccc3)c3ccccc3)CC21 (stereo unspecified)	28.4 µM	12.3 µM	39.9 µM	28.7 µM	29 µM	25.4 µM	31.5 µM	23.2 µM								
COC1CC(OS(=O)(=O)c2ccc([N+](=O)[O-])cc2)C(OC(=O)c2ccccc2)C(C)O1 (stereo unspecified)		> 100 µM	> 100 µM		> 100 µM		> 100 µM	> 100 µM								
Cc1ccc(S(=O)(=O)OC2CSS(=O)CC2OS(=O)(=O)c2ccc(C)cc2)cc1 (stereo unspecified)	35.7 µM	28.3 µM	21.1 µM	38.5 µM	32 µM	36.2 µM	18.9 µM	20.8 µM								
CC(C)C1CC[C@@H](C)C[C@@]1(O)CC(N)=O (stereo partly specified)	> 100 µM		> 100 µM	> 100 µM	> 100 µM	> 100 µM	> 100 µM									
O=C(O)C(SC(=S)c1ccc(C(=S)SC(C(=O)O)c2ccccc2)cc1)c1ccccc1 (stereo unspecified)		> 100 µM	> 100 µM	> 100 µM	> 100 µM	> 100 µM	> 100 µM	> 100 µM								
